Experimental data reported in patent US10910642B1, “Redox flow battery having ligand-metal complex” (Los Alamos National Security, LLC, priority 2017, dated 2021).

Assay: Complex solubility in acetonitrile with 0.1 M tetrabutylammonium hexafluorophosphate
Type: physicochemical
Conditions: room temperature
Description: FIG. 8 is a graph depicting the complex solubility in acetonitrile with 0.1 M tetrabutylammonium hexafluorophosphate.

maximum solubility: 15 mM
Structure (SMILES): CCC(CC[N-]C(=O)c1ccccn1)[N-]C(=O)c1ccccn1.[Ni+2] (stereo not shown) [Ni((Etbppn)]
